According to patent publication US20070060478A1, “Herbicidal mixtures comprising a safener” (BASF AKTIENGESELLSCHAFT, priority 2005, published 2007):

Tests used:
Type in all cases: in vivo
Settings in all cases: 50 g/ha, applied alone
[1] = tested on: spring wheat; assay: post-emergence application, damage to crop plants (damage scale 0% to 100%)
From the text: (§1) The mixtures according to the invention were applied pre- or post-emergence (foliar treatment). The herbicidal compounds of component B) and of component C) were applied in the formulation in which they are present as commercially available product.
(§2) In the case of the field trials, application was effected with the aid of a mobile plot sprayer.
(§3) The test period extended over 3 to 8 weeks, and the stands were also observed at later points in time.
(§4) Damage by the herbicidal compositions was evaluated with reference to a scale of 0% to 100% in comparison with untreated control plots. 0 means no damage and 100 means complete destruction of the plants.

[2] = tested on: green foxtail; assay: post-emergence application, control of unwanted plants (damage scale 0% to 100%)
From the text: as §1, §2, §3, §4

[3] = tested on: durum wheat; assay: post-emergence application, damage to crop plants (damage scale 0% to 100%)
From the text: as §1, §2, §3, §4

[4] = tested on: pigweed; assay: post-emergence application, control of unwanted plants (damage scale 0% to 100%)
From the text: as §1, §2, §3, §4

[5] = tested on: wild oat; assay: as above
From the text: as §1, §2, §3, §4

**Q.** For `Cc1c(C(=O)c2cnn(C)c2O)ccc(S(C)(=O)=O)c1C1=NOCC1` [4-[2-methyl-3-(4,5-dihydro-isoxazol-3-yl)-4-methylsulfonyl-benzoyl]-1-methyl-5-hydroxy-1H-pyrazole], which “damages in crop plants” value [1] is on record?
**A.** causes damages

**Q.** What about the “control of unwanted plants” value [2] of the same compound?
**A.** in an excellent manner

**Q.** What about the “damages in crop plants” value [3] of the same compound?
**A.** causes damages

**Q.** What about the “control of unwanted plants” value [4] of the same compound?
**A.** in an excellent manner

**Q.** And the “control of unwanted plants” value [5]?
**A.** in an excellent manner
